Reference: PMC9502271, “An Investigation of the Anti-Depressive Properties of Phenylpropanoids and Flavonoids in Hemerocallis citrina Baroni” (Molecules, 2022)
Read-outs that look alike come from different tables or passages of the source.

Tests used:
[1] = tested on: BV2 microglial cells; assay: CCK8 cytotoxic activity in BV2 microglial cells; assay type: cell-based; details: compound test concentrations 3.125 to 100 μM, read-out: IC50 Cell Viability
Procedure: (§1) BV2 microglia cells were purchased from iCell Bioscience Inc. (Shanghai, China). The cells were grown at 37 °C in a humid environment with 5% CO2. In DMEM with 10% fetal bovine serum and 1% penicillin-streptomycin solution, they were maintained alive. The following assays were carried out while the cells were in the exponential growth phase (subcultured 2–3 times).
The cytotoxic activity was assessed using the CCK8 test. In a 96-well plate, BV2 microglial cells (5 × 10^4 cells/well) were placed in each well and incubated for 12 h. After one hour with each substance, LPS (1 μg/mL) was applied to the BV2 microglia cells for an additional 24 h. The CCK8 solution was then incubated with BV2 cells for 1 h at 37 °C. The absorbance at 450 nm was measured using a plate reader (Molecular Devices, San Jose, CA, USA). The cells that had not been treated were assumed to have a 100% optical density.

[2] = tested on: NO production induced by LPS in BV2 cells; assay: Inhibition of NO production in LPS-induced BV2 microglial cells (Griess reagent); assay type: cell-based; details: for IC50: compound test concentrations 3.125 to 100 μM, mean ± SD (n = 3), read-out: IC50 NO Inhibitory
Procedure: as §1
To determine how much NO is produced, the literature was consulted. Equal parts of the Griess reagent (1% sulfanilamide and 0.1% N-(1-naphthyl) ethylenediamine dihydrochloride in 2.5% phosphoric acid) were combined with the sample-treated cell culture medium for 5 min at room temperature and in the dark. It was determined that the absorbance was at 540 nm using a microplate reader. The trials were conducted simultaneously in triplicate.

[3] = Mus musculus, BV-2, CCK8, LPS 1 μg/mL 24 h
[4] = Mus musculus, BV-2, LPS-induced BV2 cells

| Compound | IC50 [2, 4] | IC50 ([2]; LPS-induced BV2 cells) | IC50 [1, 3] | IC50 ([1]; CCK8, LPS 1 μg/mL 24 h) | inhibitory effects on NO production in comparison with the positive drug indomethacin ([2]; LPS-induced BV2 cells) |
| --- | --- | --- | --- | --- | --- |
| O=C(O)/C=C/c1ccc(O)cc1 [Compound 1, (E)-p-coumaric acid] | > 100 µM | – | > 100 µM | – | – |
| O=C(O)/C=C\c1ccc(O)cc1 [Compound 2, (Z)-p-coumaric acid] | > 100 µM | – | > 100 µM | – | – |
| O=C(/C=C/c1ccc(O)cc1)O[C@H]1C[C@](O)(C(=O)O)C[C@H](O)[C@H]1O [Compound 3, 3-O-(E)-p-coumaroylquinic acid] | < 100 µM | 78.5 ± 8.23 µM | > 100 µM | – | – |
| O=C(/C=C\c1ccc(O)cc1)O[C@H]1C[C@](O)(C(=O)O)C[C@H](O)[C@H]1O [Compound 4, 3-O-(Z)-p-coumaroylquinic acid] | < 100 µM | 70.4 ± 5.86 µM | > 100 µM | – | – |
| COC(=O)[C@@]1(O)C[C@H](OC(=O)/C=C/c2ccc(O)cc2)[C@H](O)[C@@H](O)C1 [Compound 5, 3-O-(E)-p-coumaroylquinic acid methyl ester] | < 100 µM | 95.8 ± 7.18 µM | > 100 µM | – | – |
| COC(=O)[C@@]1(O)C[C@H](OC(=O)/C=C\c2ccc(O)cc2)[C@H](O)[C@@H](O)C1 [Compound 6, 3-O-(Z)-p-coumaroylquinic acid methyl ester] | > 100 µM | – | > 100 µM | – | – |
| O=C(C=Cc1ccc(O)cc1)OC1CC2(O)CC(OC2=O)C1O (stereo not drawn) [Compound 7, 3-O-(E)-p-coumaroylquinide] | – | 94.6 ± 5.62 µM | > 100 µM | – | – |
| O=C(C=Cc1ccc(O)cc1)OC1CC2(O)CC(OC2=O)C1O (stereo not drawn) [Compound 8, 3-O-(Z)-p-coumaroylquinide] | – | – | – | > 100 µM | stronger inhibitory effects |
| O=c1c(O)c(-c2ccc(O)c(O)c2)oc2cc(O)cc(O)c12 [Compound 16, quercetin] | – | – | > 100 µM | – | stronger inhibitory effects |

More lines, main results first:

| IC50 [2, 4] | IC50 ([2]; LPS-induced BV2 cells) | Compound | IC50 [1, 3] | IC50 ([1]; CCK8, LPS 1 μg/mL 24 h) | inhibitory effects on NO production in comparison with the positive drug indomethacin ([2]; LPS-induced BV2 cells) |
| --- | --- | --- | --- | --- | --- |
| > 100 µM | – | O=C(/C=C/c1ccc(O)cc1)O[C@H]1[C@@H](O)C[C@](O)(C(=O)O)C[C@@H]1O [Compound 9, 4-O-(E)-p-coumaroylquinic acid] | > 100 µM | – | – |
| > 100 µM | – | O=C(/C=C\c1ccc(O)cc1)O[C@H]1[C@@H](O)C[C@](O)(C(=O)O)C[C@@H]1O [Compound 10, 4-O-(Z)-p-coumaroylquinic acid] | > 100 µM | – | – |
| > 100 µM | – | O=C(/C=C/c1ccc(O)cc1)O[C@H]1C[C@@](O)(C(=O)O)C[C@H](O)[C@@H]1O [Compound 11, 5-O-(E)-p-coumaroylquinic acid] | > 100 µM | – | – |
| > 100 µM | – | O=C(/C=C/c1ccc(O)c(O)c1)O[C@H]1C[C@@](O)(C(=O)O)C[C@H](O)[C@@H]1O [Compound 12, neochlorogenic acid] | > 100 µM | – | – |
| < 100 µM | 74.4 ± 6.53 µM | O=C(/C=C/c1ccc(O)c(O)c1)O[C@H]1[C@@H](O)C[C@](O)(C(=O)O)C[C@@H]1O [Compound 13, crypto-chlorogenic acid] | > 100 µM | – | – |
| > 100 µM | – | O=C(/C=C/c1ccc(O)c(O)c1)O[C@@H]1C[C@](O)(C(=O)O)C[C@@H](O)[C@H]1O [Compound 14, chlorogenic acid] | > 100 µM | – | – |
| > 100 µM | – | COc1cc(/C=C/C(=O)O[C@@H]2C[C@@](O)(C(=O)O)C[C@@H](O)[C@@H]2O)ccc1O [Compound 15, 3-O-(E)-feruloylquinic acid] | > 100 µM | – | – |
| > 100 µM | – | O=c1c(O[C@@H]2O[C@H](CO)[C@H](O)[C@H](O)[C@H]2O)c(-c2ccc(O)c(O)c2)oc2cc(O)cc(O)c12 [Compound 18, quercetin-3-O-β-D-galactpyranoside] | > 100 µM | – | – |
| > 100 µM | – | O=c1c(O[C@@H]2O[C@H](CO)[C@@H](O)[C@H](O)[C@H]2O)c(-c2ccc(O)c(O)c2)oc2cc(O)cc(O)c12 [Compound 19, quercetin-3-O-β-D-glucopyranoside] | > 100 µM | – | – |
| > 100 µM | – | C[C@@H]1O[C@@H](OC[C@H]2O[C@@H](Oc3c(-c4ccc(O)c(O)c4)oc4cc(O)cc(O)c4c3=O)[C@H](O)[C@@H](O)[C@@H]2O)[C@H](O)[C@H](O)[C@H]1O [Compound 20, quercetin-3-O-rutinoside] | > 100 µM | – | – |
